Reference: patent US10802012B2, “Optical cytometry to determine cell mass changes in response to a biologically active agent” (The Regents of the University of California, priority 2009, dated 2020)

Experiments:
NIH3T3 cells [1] = test: Cell morphology in intensity images during cytochalasin treatment; assay type: cell-based, mouse; conditions: 1 μM, up to 45 minutes
Protocol: (§1) Cells were prepared for measurement as described above. A continuous infusion of fresh media into the sample chamber, warmed to 37 C and pre-saturated with 5%CO2, was maintained at all times. The rate of infusion was 5 μL/min, equivalent to exchanging the entire volume of the test chamber in 20 minutes. Cells were equilibrated under flow for 45 minutes before measurement. Flow was halted during each measurement cycle, which lasted approximately 200 seconds. The first, a media-only measurement was conducted at 1 hour, immediately followed by introduction of cytochalasin B into the infusing media. Initially, the cytochalasin B was dissolved in DMSO and diluted in DMEM to produce a stock concentration 1000× the working concentration (1 μM or 10 μM). At the appropriate time, the stock solution was introduced into the infusion media reservoir to produce the desired final concentration.

NIH3T3 cells [2] = test: Mechanical imaging interferometry (MII) viscoelastic measurement of cells before and after cytochalasin B; assay type: cell-based, mouse
Protocol: The population measurements of the NIH 3T3 fibroblasts and the HEK 293T […] were conducted over several consecutive days. Both cell types were cultured at the same time on a series of poly-L-lysine coated 0.20×10 mm round glass coverslips, in 1×DMEM with 10% fetal bovine serum in a laboratory incubator under standard cell culture conditions. Preceding measurement, a single round coverslip containing cells would be removed from the culture dish and quickly placed in the microscope test chamber. Microreflectors would be added to media from the original culture dish, which would then be pipetted slowly onto the cells and the sample chamber sealed. Cells were allowed to equilibrate in the test chamber for 30 minutes before measurement. The average radius of the measured microreflectors was 3.79 μm, and the average applied force was 190 pN. The average cell height was 8.1 μm and the average maximum indentation depth per cell was 660 nm.
The three constants for a viscoelastic solid were determined for each measurement by fitting the time-dependent force-displacement curves of the microreflectors to the following equation (see, e.g. Cheng et al., (2005) Mechanics of Materials 37, 213-226):
[formula] Our measurements assumed Poisson's ratio for the cell, v=0.5. Curves were fitted using the Levenberg-Marquardt non-linear least squares procedure (Origin Labs). The z-statistic was used to compare the log-transformed sample means and determine p values. The Bartlett test was used to confirm homogeneity of the compared sample variances.
To remain within the semi-infinite layer assumptions of this model, we present fits only for observations where the minimum cell thickness at the location of the microreflector was 3 μm or greater. A majority of the measurements fit the model elastic constants E1 and E2 well, having a relative standard error of fit <25%. There was larger uncertainty in the viscosity factor, η, with only 30% of the fits having a relative standard error <25%.
as §1

fibroblasts [3] = conditions: low doses (0.1-1 μM); cited from earlier work
fibroblasts [4] = conditions: low doses (0.1-1 μM); cited from earlier work; remark: listed apart in the source
fibroblasts [5] = conditions: low doses (0.1-1 μM); cited from earlier work; remark: listed apart in the source
[6] = NIH3T3 cells, 1 μM, matched individual cell basis
[7] = NIH3T3 cells, FIG. 6B, normal force applied for 100 seconds, before vs after treatment

Structure (SMILES): C=C1[C@@H](C)[C@H]2[C@H](Cc3ccccc3)NC(=O)[C@]23OC(=O)/C=C/[C@H](O)CCC[C@@H](C)C/C=C/[C@H]3[C@@H]1O [cytochalasin B]
- change in cell morphology (NIH3T3 cells [1]): only a slight change in cell morphology
- mean of the log-transformed distribution of E2 (delayed elastic constant) after treatment (NIH3T3 cells [2]; NIH3T3 cells (n=30), 1 μM, before treatment 2.30, p=0.04): 2.02
- mean of the log-transformed distribution of E1 (instantaneous elastic constant) after treatment (NIH3T3 cells [2]; NIH3T3 cells (n=30), 1 μM, before treatment 3.19, p=0.10): 2.92
- mean of the log-transformed viscous constant η after treatment (NIH3T3 cells [2]; NIH3T3 cells (n=30), 1 μM, before treatment 3.39, p=0.47): 3.36
- matched individual cells with E1 lower after treatment (NIH3T3 cells [2]; [6]): 10/13
- matched individual cells with E2 lower after treatment (NIH3T3 cells [2]; [6]): 7/10
- matched individual cells with viscosity η lower after treatment (NIH3T3 cells [2]; [6]): 6/11
- change in viscoelastic behavior, force-displacement curve of probe 1 (NIH3T3 cells [2]; [7]): appears to be unchanged
- change in viscoelastic behavior, force-displacement curve of probe 4 (NIH3T3 cells [2]; [7]): change in elastic rebound behavior
- change in viscoelastic behavior, force-displacement curves of probes 2 and 3 (NIH3T3 cells [2]; [7]): clear decrease in stiffness
- elasticity of treated cells (NIH3T3 cells [2]; NIH3T3 cells, low dose (1 μM)): treated cells were less elastic
- cell migration (fibroblasts [3]): inhibit cell migration
- change in Young's modulus by AFM indentation (fibroblasts [4]): minimal, if any, measurable change in Young's modulus
- changes in the morphology of fibroblasts (fibroblasts [5]): does not produce large changes in the morphology
